Tests used:
USP30 = USP30 (Homo sapiens (Human), UniProt Q70CQ3); assay: USP30 biochemical IC50 assay (fluorescence polarisation); settings: geomean; USP30 4 nM, 30 min pre-incubation, TAMRA-peptide-ubiquitin FP substrate
Procedure: Dilution plates were prepared at 21 times the final concentration (2100 μM for a final concentration of 100 μM) in 50% DMSO in a 96-well polypropylene V-bottom plate (Greiner #651201). A typical 8-point dilution series would be 100, 30, 10, 3, 1, 0.3, 0.1, 0.03 μM final. Reactions were performed in duplicate in black 384 well plates (small volume, Greiner 784076) in a final reaction volume of 21 μl.
Either lpl of 50% DMSO or diluted compound was added to the plate. USP30 (Boston Biochem #E582) was diluted in reaction buffer (40 mM Tris, pH 7.5, 0.005% Tween 20, 0.5 mg/ml BSA, 5 mM beta-mercaptoethanol) to achieve a final assay concentration of 4 nM, and 10 μl of diluted USP30 was added to the compound. Enzyme and compound were incubated for 30 min at room temp. Reactions were initiated by the addition of 50 nM of TAMRA labelled peptide linked to ubiquitin via an isopeptide bond as fluorescence polarisation substrate. Reactions were read immediately after addition of substrate and following a 2-hour incubation at room temperature. Readings were performed on a Pherastar Plus (BMG Labtech). λ Excitation 540 nm; λ Emission 590 nm.

TOM20 ubiquitylation = assay: TOM20-ubiquitylation assay (western blot of cell lysates); assay type: cell-based, Human; settings: antimycin A/oligomycin mitophagy trigger, concentration for 1.5-fold gain of TOM20-Ub
Excerpt: TOM20-Ubiquitylation Assay Human cell lines can be challenged with mitochondrial depolarizing agents (ionophores (eg. CCCP, valinomycin), mitochondrial complex inhibitors (oligomycin, antimycin A)) to induce ubiquitylation of TOM20, which is then further promoted in the presence of USP30 inhibitors. TOM20 ubiquitylation is subsequently assessed through western blotting of the cell lysates, with TOM20 ubiquitylation adduct detection possible due to an 8 kDa molecule weight increase for each molecule of ubiquitin added, resulting in laddering of a TOM20 immunoreactive band. TOM20-ubiquitylation levels can be quantified using chemiluminescence densitometry of laddered immunoreactive bands.

Sequence of USP30 (Q70CQ3 57-517): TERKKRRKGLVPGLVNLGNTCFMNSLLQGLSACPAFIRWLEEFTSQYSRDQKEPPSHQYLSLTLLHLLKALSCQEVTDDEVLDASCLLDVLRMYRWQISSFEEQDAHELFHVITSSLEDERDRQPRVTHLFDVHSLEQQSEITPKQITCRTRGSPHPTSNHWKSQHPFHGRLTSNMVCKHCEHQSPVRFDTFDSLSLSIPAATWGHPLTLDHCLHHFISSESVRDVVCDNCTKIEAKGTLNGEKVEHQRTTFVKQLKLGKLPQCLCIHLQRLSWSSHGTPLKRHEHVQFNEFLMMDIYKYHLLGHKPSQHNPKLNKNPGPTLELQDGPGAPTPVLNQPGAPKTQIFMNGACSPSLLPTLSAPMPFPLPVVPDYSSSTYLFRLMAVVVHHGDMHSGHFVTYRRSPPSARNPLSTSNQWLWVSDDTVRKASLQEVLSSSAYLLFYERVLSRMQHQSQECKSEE

SMILES	IC50 (USP30) [nM]	EC1.5x (Geomean, nM); TOM20-Ub 1.5-fold gain (TOM20 ubiquitylation) [nM]
N#CN1C[C@H](NC(=O)c2ncc(-c3cccc(C(F)(F)F)c3)o2)C[C@H]1Cn1cccn1 [Example 30, N-((3R,5S)-5-((1H-Pyrazol-1-yl)methyl)-1-cyanopyrrolidin-3-yl)(3(trifluoromethyl)phenyl)oxazole-2-carboxamide]	11	14
N#CN1C[C@H](NC(=O)c2ncc(-c3cccc(C4CC4)c3)o2)C[C@H]1Cn1ccnn1 [Example 12, N-((3R,5S)-5-((1H-1,2,3-Triazol-1-yl)methyl)-1-cyanopyrrolidin-3-yl)-5-(3-cyclopropylphenyl)oxazole2-carboxamide]	8	25
N#Cc1ccc(OC2COC2)c(-c2cnc(C(=O)N(C3CC3)[C@@H]3C[C@@H](Cn4ccnn4)N(C#N)C3)o2)c1 [Example 16, N-((3R,5S)-5-((1H-1,2,3-Triazol-1-yl)methyl)-1-cyanopyrrolidin-3-yl)-5-(5-cyano-2-(oxetan-3-yloxy)phenyl)-N-cyclopropyloxazole-2-carboxamide]	28	950
N#CN1C[C@H](NC(=O)c2ncc(-c3cccc(Cl)c3)o2)C[C@H]1Cn1ccnn1 [Example 5, N-((3R,5S)-5-((1H-1,2,3-Triazol-1-yl)methyl)-1-cyanopyrrolidin-3-yl)-5-(3-chlorophenyl)oxazole-2-carboxamide]	4	9
N#Cc1cccc(-c2cnc(C(=O)N[C@@H]3C[C@@H](Cn4cncn4)N(C#N)C3)o2)c1 [Example 18, N-((3R,5S)-5-((1H-1,2,4-Triazol-1-yl)methyl)-1-cyanopyrrolidin-3-yl)-5-(3-cyanophenyl)oxazole-2-carboxamide]	2	16
N#Cc1ccc(C2CC2)c(-c2nnc(C(=O)N[C@@H]3C[C@@H](Cn4cccn4)N(C#N)C3)o2)c1 [Example 46, N-((3R,5S)-5-((1H-Pyrazol-1-yl)methyl)-1-cyanopyrrolidin-3-yl)-5-(5-cyano-2-cyclopropylphenyl)-1,3,4-oxadiazole-2-carboxamide]	9	19
COc1ccccc1-c1cnc(C(=O)N[C@@H]2C[C@@H](Cn3ccnn3)N(C#N)C2)o1 [Example 6, N-((3R,5S)-5-((1H-1,2,3-Triazol-1-yl)methyl)-1-cyanopyrrolidin-3-yl)-5-(2-methoxyphenyl)oxazole-2-carboxamide]	23	180
N#CN1C[C@H](NC(=O)c2cc(-c3cccc(C(F)(F)F)c3)ccn2)C[C@H]1Cn1ccnn1 [Example 24, N-((3R,5S)-5-((1H-1,2,3-Triazol-1-yl)methyl)-1-cyanopyrrolidin-3-yl)-4-(3-(trifluoromethyl)phenyl)picolinamide]	9	620
N#Cc1ccc(C2CC2)c(-c2nnc(C(=O)N(C3CC3)[C@@H]3C[C@@H](Cn4ccnn4)N(C#N)C3)o2)c1 [Example 2, N-((3R,5S)-5-((1H-1,2,3-Triazol-1-yl)methyl)-1-cyanopyrrolidin-3-yl)-5-(5-cyano-2-cyclopropylphenyl)-N-cyclopropyl-1,3,4-oxadiazole-2-carboxamide]	11	15
N#CN1C[C@H](NC(=O)c2ncc(-c3ccccc3C3CC3)o2)C[C@H]1Cn1ccnn1 [Example 8, N-((3R,5S)-5-((1H-1,2,3-Triazol-1-yl)methyl)-1-cyanopyrrolidin-3-yl)-5-(2-cyclopropylphenyl)oxazole-2-carboxamide]	14	41

More lines, main results first:

IC50 (USP30) [nM]	SMILES	EC1.5x (Geomean, nM); TOM20-Ub 1.5-fold gain (TOM20 ubiquitylation) [nM]
2	N#Cc1cccc(-c2cnc(C(=O)N[C@@H]3C[C@@H](Cn4ccnn4)N(C#N)C3)o2)c1 [Example 3, N-((3R,5S)-5-((1H-1,2,3-Triazol-1-yl)methyl)-1-cyanopyrrolidin-3-yl)-5-(3-cyanophenyl)oxazole-2-carboxamide]	8
5	N#Cc1cccc(-c2cnc(C(=O)N[C@@H]3C[C@@H](Cn4cccn4)N(C#N)C3)o2)c1 [Example 26, N-((3R,5S)-5-((1H-Pyrazol-1-yl)methyl)-1-cyanopyrrolidin-3-yl)-5-(3-cyanophenyl)oxazole-2-carboxamide]	14
4	N#Cc1cccc(-c2cnc(C(=O)N[C@@H]3C[C@@H](Cn4nccn4)N(C#N)C3)o2)c1 [Example 17, N-((3R,5S)-5-((2H-1,2,3-Triazol-2-yl)methyl)-1-cyanopyrrolidin-3-yl)-5-(3-cyanophenyl)oxazole-2-carboxamide]	16
5	N#Cc1ccc(C2CC2)c(-c2cnc(C(=O)N(C3CC3)[C@@H]3C[C@@H](Cn4ccnn4)N(C#N)C3)o2)c1 [Example 1, N-((3R,5S)-5-((1H-1,2,3-Triazol-1-yl)methyl)-1-cyanopyrrolidin-3-yl)-5-(5-cyano-2-cyclopropylphenyl)-N-cyclopropyloxazole-2-carboxamide]	17
